For the assay, the system named is primary rat mixed cortical cells. As to the kind of experiment: In vitro myelination assay (MBP positive myelin strands, fold myelin pixels above background). The format is cell-based. Conditions: Rattus norvegicus; for fold induction at 1 µM: 1.0 μM compound; for fold induction at 10 µM: 10.0 μM compound. In outline:
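Myelination read as total MBP-immunopositive strand pixels per well, imaged at 10× after fixation on day 14 and expressed relative to untreated wells, at 1.0 and 10.0 μM. Cells: dissociated postnatal day 1 rat cortex, cultured two weeks with compound, re-dosed at days 6 and 10.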

The mark [1] stands for this setting: relative to baseline of no added compound, read-out: Fold myelin pixels above background, 1.0 μM.
Setting [2] is: relative to baseline of no added compound, read-out: Fold myelin pixels above background, 10.0 μM.
Where [3] appears, read: relative to baseline of no added compound, read-out: Fold myelin pixels above background.
The mark [4] stands for this setting: read-out: Fold myelin pixels above background relative to baseline of no added compound.

Where two headings read alike, the source gives them in different places.

On to `Cc1cc(Nc2ncn(-c3cncnc3)n2)cc(N2CCN(C)CC2)c1` [Compound 381, N-[3-methyl-5-(4-methylpiperazin-1-yl)phenyl]-1-pyrimidin-5-yl-1,2,4-triazol-3-amine], for which the fold induction at 1 µM under setting [1] lay within 1 to 10. Also, under setting [2], the fold induction at 10 µM was 100 to 1000.
Turning to `Cc1cc(Nc2ncn(-c3cc(F)cc(F)c3)n2)cc(C2CNC(=O)O2)c1` (centres unmarked) [Compound 295, 5-[3-[[1-(3,5-difluorophenyl)-1,2,4-triazol-3-yl]amino]-5-methyl-phenyl]oxazolidin-2-one], the fold induction at 1 µM under setting [1] was in the range of 10 to 100. Besides, under setting [2], the fold induction at 10 µM lay within 1 to 10.
In the same order, the values of `CCc1cc(Nc2ncn(-c3ccc(OC(F)(F)F)cc3)n2)cc(N2CCN(C3COC3)CC2)c1` [Compound 303, N-[3-ethyl-5-[4-(oxetan-3-yl)piperazin-1-yl]phenyl]-1-[4-(trifluoromethoxy)phenyl]-1,2,4-triazol-3-amine] are 1 to 10 and 1 to 10.
The corresponding values for `Cc1cc(Nc2ncn(-c3cc(F)cc(F)c3)n2)cc([C@@H]2CCN(C3COC3)C2)c1` (single isomer, unassigned) [Compound 92] are 1000 to 10000 and 100 to 1000.
Take `CCN(C)Cc1cc(F)cc(-n2cnc(Nc3cc(C)cc(N4CCN(C5COC5)CC4)c3)n2)c1` [Compound 187, 1-[3-[[ethyl(methyl)amino]methyl]-5-fluoro-phenyl]-N-[3-methyl-5-[4-(oxetan-3-yl)piperazin-1-yl]phenyl]-1,2,4-triazol-3-amine]: under setting [1], the fold induction at 1 µM is 100 to 1000. For the same compound, the fold induction at 10 µM under setting [2] was at most 1.
On to `Fc1cc(F)cc(-n2cnc(Nc3cc(C4CC4)cc(N4CCN(C5COC5)CC4)c3)n2)c1` [Compound 389, N-(3-cyclopropyl-5-(4-(oxetan-3-yl)piperazin-1-yl)phenyl)-1-(3,5-difluorophenyl)-1H-1,2,4-triazol-3-amine], for which, under setting [3], the fold induction at 1 µM fell in the range of 1000 to 10000 and the fold induction at 10 µM was at most 1.
As to `[2H]C1([2H])N(C(C)=O)C([2H])([2H])C([2H])([2H])N(c2cc(C)cc(Nc3ncn(-c4cc(F)cc(F)c4)n3)c2)C1([2H])[2H]` [Compound 1044, 1-[2,2,3,3,5,5,6,6-octadeuterio-4-[3-[[1-(3,5-difluorophenyl)-1,2,4-triazol-3-yl]amino]-5-methyl-phenyl]piperazin-1-yl]ethanone], under setting [4], the fold induction at 1 µM was 1 to 10 and the fold induction at 10 µM lay in the range of 1 to 10.
Turning to `CN1CCN(c2cc(Nc3ncn(-c4cccc(F)c4)n3)cc(C(F)(F)F)c2)CC1` [Compound 257, 1-(3-fluorophenyl)-N-[3-(4-methylpiperazin-1-yl)-5-(trifluoromethyl)phenyl]-1,2,4-triazol-3-amine], the fold induction at 1 µM under setting [1] is 100 to 1000. Further, the fold induction at 10 µM under setting [2] was at most 1.
Regarding `COCCN1CC(Nc2cc(C)cc(Nc3ncn(-c4cc(F)cc(F)c4)n3)c2)CC1=O` (centres unmarked) [Compound 934, 4-[3-[[1-(3,5-difluorophenyl)-1,2,4-triazol-3-yl]amino]-5-methyl-anilino]-1-(2-methoxyethyl)pyrrolidin-2-one], under setting [4], the fold induction at 1 µM lay in the range of 10 to 100 and the fold induction at 10 µM was at most 1.
In the case of `Fc1cc(F)cc(-n2cnc(Nc3cc(N4CC(N5CCOCC5)C4)cc(F)n3)n2)c1` [Compound 612, N-[1-(3,5-difluorophenyl)-1,2,4-triazol-3-yl]-6-fluoro-4-(3-morpholinoazetidin-1-yl)pyridin-2-amine], under setting [3], the fold induction at 1 µM was at most 1 and the fold induction at 10 µM was in the range of 10 to 100.
Turning to `[2H]C1([2H])N(C)C([2H])([2H])C([2H])([2H])N(c2cc(C)cc(Nc3ncn(-c4ccccc4)n3)c2)C1([2H])[2H]` [Compound 1111, N-[3-methyl-5-(2,2,3,3,5,5,6,6-octadeuterio-4-methyl-piperazin-1-yl)phenyl]-1-phenyl-1,2,4-triazol-3-amine], under setting [4], the fold induction at 1 µM is 100 to 1000 and the fold induction at 10 µM is at most 1.
With `Cc1cc(Nc2ncn(-c3cc(F)cc(F)c3)n2)nc(N2CCN(C3(C)COC3)CC2)c1` [Compound 580, N-[1-(3,5-difluorophenyl)-1,2,4-triazol-3-yl]-4-methyl-6-[4-(3-methyloxetan-3-yl)piperazin-1-yl]pyridin-2-amine], under setting [3], the fold induction at 1 µM is at most 1 and the fold induction at 10 µM was 1 to 10.
On to `COCCNc1cc(F)cc(-n2cnc(Nc3cc(C)cc(N4CC(F)C4)c3)n2)c1` [Compound 766, N-[3-(3-fluoroazetidin-1-yl)-5-methyl-phenyl]-1-[3-fluoro-5-(2-methoxyethylamino)phenyl]-1,2,4-triazol-3-amine], for which, under setting [3], the fold induction at 1 µM was 1 to 10 and the fold induction at 10 µM is at most 1.
As for `F[C@H]1CCN(c2cc(Nc3ncn(-c4ccccc4)n3)cc(C3CC3)n2)C1` [Compound 460, 2-cyclopropyl-6-[(3S)-3-fluoropyrrolidin-1-yl]-N-(1-phenyl-1,2,4-triazol-3-yl)pyridin-4-amine], under setting [3], the fold induction at 1 µM was 100 to 1000 and the fold induction at 10 µM was in the range of 10 to 100.
On to `Cc1cc(Nc2ncn(-c3ccccc3)n2)cc(C2CCCN(C3COC3)C2)c1` (centres unmarked) [Compound 248, N-[3-methyl-5-[1-(oxetan-3-yl)-3-piperidyl]phenyl]-1-phenyl-1,2,4-triazol-3-amine], for which the fold induction at 1 µM under setting [1] was in the range of 100 to 1000. Besides, the fold induction at 10 µM under setting [2] was 1 to 10.
Turning to `CCc1cc(Nc2ncn(-c3cnccn3)n2)cc(N2CCN(C3(C)COC3)CC2)c1` [Compound 489, N-[3-ethyl-5-[4-(3-methyloxetan-3-yl)piperazin-1-yl]phenyl]-1-pyrazin-2-yl-1,2,4-triazol-3-amine], under setting [3], the fold induction at 1 µM was 10 to 100 and the fold induction at 10 µM is 10 to 100.
In the case of `Cc1cc(Nc2ncn(-c3cc(F)cc(F)c3)n2)cc(C2(C)CN(C)C(=O)O2)c1` (centres unmarked) [Compound 613, 5-[3-[[1-(3,5-difluorophenyl)-1,2,4-triazol-3-yl]amino]-5-methyl-phenyl]-3,5-dimethyl-oxazolidin-2-one], under setting [3], the fold induction at 1 µM was in the range of 10 to 100 and the fold induction at 10 µM lay in the range of 1 to 10.
In the same order, the values of `Cc1cc(Nc2ncn(-c3ccccn3)n2)cc(C2COC2)c1` [Compound 404, N-[3-methyl-5-(oxetan-3-yl)phenyl]-1-(2-pyridyl)-1,2,4-triazol-3-amine] are 100 to 1000 and 100 to 1000.
For the compound `CCOCCN1CCN(c2cc(C)cc(Nc3ncn(-c4cc(F)cc(F)c4)n3)c2)CC1C` (centres unmarked) [Compound 1063, 1-(3,5-difluorophenyl)-N-[3-[4-(2-ethoxyethyl)-3-methyl-piperazin-1-yl]-5-methyl-phenyl]-1,2,4-triazol-3-amine], under setting [4], the fold induction at 1 µM lay within 10 to 100 and the fold induction at 10 µM is at most 1.
As for `c1cncc(-n2cnc(Nc3cc(C4CCOCC4)cc(C4CCOCC4)c3)n2)c1` [Compound 250, N-[3,5-di(tetrahydropyran-4-yl)phenyl]-1-(3-pyridyl)-1,2,4-triazol-3-amine], under setting [1], the fold induction at 1 µM was in the range of 100 to 1000. Moreover, the fold induction at 10 µM under setting [2] lay in the range of 10 to 100.
On to `Fc1cc(F)cc(-n2cnc(Nc3cc(C(F)(F)F)cc(N4CCN(C5COC5)CC4)n3)n2)c1` [Compound 540, N-[1-(3,5-difluorophenyl)-1,2,4-triazol-3-yl]-6-[4-(oxetan-3-yl)piperazin-1-yl]-4-(trifluoromethyl)pyridin-2-amine], for which, under setting [3], the fold induction at 1 µM was 10 to 100 and the fold induction at 10 µM lay within 100 to 1000.
Regarding `FC(F)c1cc(Nc2ncn(-c3ccccc3)n2)cc(N2CCN(C3CC3)CC2)c1` [Compound 348, N-[3-(4-cyclopropylpiperazin-1-yl)-5-(difluoromethyl)phenyl]-1-phenyl-1,2,4-triazol-3-amine], under setting [1], the fold induction at 1 µM lay within 1000 to 10000. For the same compound, the fold induction at 10 µM under setting [2] was 100 to 1000.
Consider `Cc1cc(Nc2ncn(-c3cccc(C(F)(F)F)c3)n2)cc(N2CCN(C3COC3)CC2)c1` [Compound 287, N-[3-methyl-5-[4-(oxetan-3-yl)piperazin-1-yl]phenyl]-1-[3-(trifluoromethyl)phenyl]-1,2,4-triazol-3-amine], for which, under setting [1], the fold induction at 1 µM was in the range of 100 to 1000. Under setting [2], the fold induction at 10 µM is 100 to 1000.
With `CC(C)(C)c1cc(Nc2ncn(-c3cccc(F)c3)n2)cc(N2CCN(C3COC3)CC2)c1` [Compound 97, N-[3-tert-butyl-5-[4-(oxetan-3-yl)piperazin-1-yl]phenyl]-1-(3-fluorophenyl)-1,2,4-triazol-3-amine], the fold induction at 1 µM under setting [1] fell in the range of 100 to 1000. Besides, under setting [2], the fold induction at 10 µM lay in the range of 100 to 1000.
Regarding `CCc1cc(Nc2ncn(-c3cnccn3)n2)cc(N2CCNCC2)c1` [Compound 124, N-(3-ethyl-5-piperazin-1-yl-phenyl)-1-pyrazin-2-yl-1,2,4-triazol-3-amine], the fold induction at 1 µM under setting [1] was in the range of 1000 to 10000. Under setting [2], the fold induction at 10 µM was at most 1.
As to `Cc1cc(Nc2ncn(-c3ccccc3)n2)cc(C2CCN(C3COC3)CC2)c1` [Compound 71, N-[3-methyl-5-[1-(oxetan-3-yl)-4-piperidyl]phenyl]-1-phenyl-1,2,4-triazol-3-amine], the fold induction at 1 µM under setting [1] was 1000 to 10000. Moreover, under setting [2], the fold induction at 10 µM is at most 1.
Turning to `Cc1cc(Nc2ncn(-c3cc(F)cc(F)c3)n2)cc(N2CCN(C(=O)C3CCOCC3)CC2)c1` [Compound 991, [4-[3-[[1-(3,5-difluorophenyl)-1,2,4-triazol-3-yl]amino]-5-methyl-phenyl]piperazin-1-yl]-tetrahydropyran-4-yl-methanone], under setting [4], the fold induction at 1 µM was in the range of 10 to 100 and the fold induction at 10 µM is 1 to 10.
As for `Cc1cc(Nc2ncn(-c3cnccn3)n2)cc([C@]2(C)CNC(=O)O2)c1` (single isomer, unassigned) [Compound 682], under setting [3], the fold induction at 1 µM is 10 to 100 and the fold induction at 10 µM lay in the range of 10 to 100.
